Data reported in patent publication US9351983B2, “Use of glycerophosphoinositols for the treatment of septic shock” (CONSIGLIO NAZIONALE DELLE RICERCHE, priority 2012, dated 2016).

Test system: LPS-activated tissue-factor (TF) activity in human monocytes
Assay: Pro-coagulant activity of tissue factor (one-stage clotting time) in LPS-stimulated human monocytes
Format: cell-based
Procedure: FIG. 2—The glycerophosphoinositols inhibit LPS-activated tissue-factor activity in human monocytes. Human monocytes were purified from peripheral blood of healthy donors and incubated at 37° C. for 20 min without or with different concentrations (from 50 μM to 300 μM) GroPIns or GroPIns4P, and for a further 5 h and 24 h in the absence and in presence of 0.1 μg/ml LPS from E. coli. […] Data are means (±SD) of three independent experiments performed with cells from different donors. Asterisks indicate statistically significant differences (*p=0.015; **p<0.005; ***p=0.0003) versus their respective controls. As shown, pro-coagulant activity was not detectable in untreated monocytes, and it was induced in a time-dependent manner by LPS stimulation.
The glycerophosphoinositol, differently from the PLA2IVα inhibitor, inhibits LPS-activated tissue-factor activity in human monocytes. Human monocytes were purified from peripheral blood of two healthy donors (experiment I and II) and pre-incubated at 37° C. for 20 min without (black line) or with 300 μM glycerophosphoinositol (GroPIns, blue line) or 0.5 μM PLA2IVα inhibitor (pyrrophenone, Pf, red line), and for a further 24 h in the absence or presence of increasing concentrations of LPS from E. coli (endotoxin).
The glycerophosphoinositol inhibits in a dose-dependent manner LPS-activated tissue-factor activity in human monocytes. Human monocytes were purified from peripheral blood of three healthy donors (experiments III, IV and V) and pre-incubated at 37° C. for 20 min without or with increasing concentrations of glycerophosphoinositol (GroPIns) and for a further 24 h in the absence or presence of 10 ng/ml of LPS from E. coli (endotoxin). […] The two insets in Exp IV and V show the pro-coagulant activity of tissue factor, assessed in cells stimulated by 10 ng/ml of endotoxin, with (filled bars) or without (dotted bars) 20 min pre-incubation at 37° C., in absence (Control) or in presence of 300 μM GroPIns.
The glycerophosphoinositols inhibit LPS-activated tissue-factor activity in human monocytes.
Human monocytes were obtained from whole blood collected from healthy donors (informed consent was obtained) and anticoagulated with 0.1 vol 3.8% sodium citrate/0.15 mol/l NaCl. The leukocytes were sedimented at 180×g for 15 min at 10° C. The sedimented cells were diluted to the initial volume with citrate-saline and sedimented again. This step was repeated to minimise platelet contamination. The cells were then layered onto Lymphoprep™, and centrifuged at 700×g for 20 min at 20° C. The ring of mononuclear cells was collected and sedimented at 620×g for 7 min at 8° C. The pellet was resuspended in citrate-saline and the cells were washed twice. Monocytes were purified using a discontinuous Percoll™ density gradient; the mononuclear cell preparation was resuspended in RPMI-1640 medium supplemented with 10% heat-inactivated foetal calf serum, and was layered onto a 46% isosmotic Percoll™ solution. After centrifugation at 20° C. for 30 min at 550×g, the cells at the RPMI-1640 medium/Percoll™ interface were collected and sedimented at 620×g. The pellet was resuspended in citrate-saline and the cells were washed twice. The final monocyte preparation was then resuspended in serum-free RPMI-1640 at the concentration required.
The pro-coagulant activity of tissue factor (TF activity) was measured in cell lysates according to one-stage clotting time [as reported in (Evangelista et al., Thromb Haemost. 2005; 94, 568-577)]. One hundred μl of cell lysates were added to 100 μl of 37° C. prewarmed normal human plasma. After 30 s, 100 μl 20 mM CaCl2 were added to the mixture and the clotting time was determined using a KC4A Amellung Coagulometer (Mascia Brunelli, Milan, Italy). The data were then converted in arbitrary units by interpolation with a standard curve generated with serial dilutions of human recombinant thromboplastin (Hemoliance, Instrumentation Laboratory).

[1] = 300 μM, endotoxin 10 ng/ml for 24 h (FIG. 12)

Structure (SMILES): O=P(O)(O)O[C@@H]1[C@@H](O)[C@@H](O)[C@@H](OP(=O)(O)OCC(O)CO)[C@H](O)[C@H]1OP(=O)(O)O (stereo partly drawn) [GroPIns4,5P2, glycerophosphoinositol 4,5-bisphosphate]
- TF activity [1]: reduce TF activity
- efficacy in reducing TF activity compared with GroPIns [1]: higher efficacy than GroPIns

Structure (SMILES): O=C1NC(=O)/C(=C/c2ccc(C(=O)NC[C@@H]3C[C@@H](SC(c4ccccc4)(c4ccccc4)c4ccccc4)CN3C(=O)c3ccccc3C(=O)c3ccc(F)cc3F)cc2)S1 [pyrrophenone, reference compound]
- TF activity (0.5 μM, 20 min pre-incubation, increasing concentrations of endotoxin for 24 h (FIG. 10)): does not significantly inhibit endotoxin effect on tissue-factor activity
